For orientation: inhibition means the relative decrease from the control value, in per cent. In general, IC50 refers to the point on the concentration scale where inhibition reaches its midpoint.

The text below walks through data of ChEMBL document CHEMBL5058647, “Data for DCP probe JNJ-9350” (2022).

In assay [1] the target is T1, 5-hydroxytryptamine receptor 1D (Homo sapiens, UniProt P28221). To be noted: Compound concentration 10.0 uM.
Another assay has as its target D(4) dopamine receptor (Homo sapiens, UniProt P21917). Kind of assay: GPCRScan assay: inhibition of D4. Also on record: radioligand conc. used [nm] 0.6 – 1.7, parental cells Stable HEK.
The target in assay [2] is Muscarinic acetylcholine receptor M1 (Homo sapiens) (UniProt P11229). To be noted: Compound concentration 10.0 uM.
Sequence of Muscarinic acetylcholine receptor M1 (Homo sapiens) (P11229 whole entry): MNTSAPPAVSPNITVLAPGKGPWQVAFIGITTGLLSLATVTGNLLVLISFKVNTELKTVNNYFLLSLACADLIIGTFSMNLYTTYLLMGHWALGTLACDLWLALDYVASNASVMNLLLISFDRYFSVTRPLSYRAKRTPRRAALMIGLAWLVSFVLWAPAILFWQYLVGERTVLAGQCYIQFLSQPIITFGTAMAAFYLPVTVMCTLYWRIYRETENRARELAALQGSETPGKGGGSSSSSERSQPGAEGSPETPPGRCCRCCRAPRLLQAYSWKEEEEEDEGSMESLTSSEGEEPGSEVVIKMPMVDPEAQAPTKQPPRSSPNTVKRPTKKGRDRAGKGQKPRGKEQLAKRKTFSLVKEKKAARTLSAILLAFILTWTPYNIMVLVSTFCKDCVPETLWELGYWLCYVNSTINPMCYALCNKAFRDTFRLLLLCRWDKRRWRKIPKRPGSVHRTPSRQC
Assay [3] deals with Muscarinic acetylcholine receptor M4 (Homo sapiens, UniProt P08173). Kind of assay: GPCRScan assay: inhibition of M4. Details: radioligand conc. used [nm] 0.3 – 1.0, parental cells stable CHO.
The next assay concerns the target D(3) dopamine receptor (Homo sapiens, UniProt P35462). Kind of assay: GPCRScan assay: inhibition of D3. Also on record: radioligand conc. used [nm] 0.5 – 1.8, parental cells HEKT.
In assay [4] the target is 5-hydroxytryptamine receptor 1E (Homo sapiens) (UniProt P28566). To be noted: Compound concentration 10.0 uM.
Sequence of 5-hydroxytryptamine receptor 1E (Homo sapiens) (P28566 whole entry): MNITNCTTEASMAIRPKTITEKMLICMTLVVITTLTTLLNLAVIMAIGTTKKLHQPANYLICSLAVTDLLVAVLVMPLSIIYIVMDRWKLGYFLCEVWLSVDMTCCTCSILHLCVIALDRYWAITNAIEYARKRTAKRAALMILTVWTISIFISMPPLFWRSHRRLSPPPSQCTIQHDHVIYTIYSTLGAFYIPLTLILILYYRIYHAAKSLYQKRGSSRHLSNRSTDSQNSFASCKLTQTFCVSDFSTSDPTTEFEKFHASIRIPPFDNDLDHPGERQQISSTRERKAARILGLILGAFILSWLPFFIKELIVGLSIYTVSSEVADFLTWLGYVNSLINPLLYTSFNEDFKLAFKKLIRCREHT
Assay [5] has as its target Sodium-dependent dopamine transporter (Homo sapiens, UniProt Q01959). Kind of assay: GPCRScan assay: inhibition of DAT. Also on record: radioligand conc. used [nm] 3.6 – 16.0, parental cells stable HEK.
Assay [6] has as its target Alpha-1B adrenergic receptor (Homo sapiens, UniProt P35368). Briefly: GPCRScan assay: inhibition of Alpha1B. Also on record: radioligand conc. used [nm] 0.3 – 1.0, parental cells stable HEK.
For assay [7], the target named is 5-hydroxytryptamine receptor 6 (Homo sapiens) (UniProt P50406). To be noted: Compound concentration 10.0 uM.
The target in assay [8] is GABA-A receptor; anion channel (Rattus norvegicus) (UniProt O09028+P15431+P18506+P18508+P19969+P20236+P23574+P23576+P28471+P28473+P30191+P62813+P63079+P63138+Q91ZM7+Q9ES14). The conditions noted are these: Compound concentration 10.0 uM.
Assay [9] addresses T2, Spermine oxidase (Homo sapiens, UniProt Q9NWM0). Briefly: HyPerBlu SMOX enzymatic assay.
In assay [10] the target is Cholecystokinin receptor type A (Homo sapiens) (UniProt P32238). Briefly: CCK1 (CCKA) (h) CEREP ligand profiling. To be noted: filed as agonist, Compound concentration 10.0 uM.
Sequence of Cholecystokinin receptor type A (Homo sapiens) (P32238 whole entry): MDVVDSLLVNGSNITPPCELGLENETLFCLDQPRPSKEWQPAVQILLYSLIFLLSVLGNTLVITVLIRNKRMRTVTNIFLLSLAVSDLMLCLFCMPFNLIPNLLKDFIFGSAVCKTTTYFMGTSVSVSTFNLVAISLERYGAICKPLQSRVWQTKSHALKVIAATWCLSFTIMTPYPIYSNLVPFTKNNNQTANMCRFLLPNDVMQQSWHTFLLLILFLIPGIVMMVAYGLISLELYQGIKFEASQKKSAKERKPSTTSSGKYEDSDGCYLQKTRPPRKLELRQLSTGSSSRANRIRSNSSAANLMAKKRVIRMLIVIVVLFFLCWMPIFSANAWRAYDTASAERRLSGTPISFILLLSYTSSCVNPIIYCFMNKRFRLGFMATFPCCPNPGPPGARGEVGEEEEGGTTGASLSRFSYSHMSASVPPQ
Assay [11] deals with Melatonin receptor type 1A (Homo sapiens) (UniProt P48039). Briefly: MT1 (ML1A) (h) CEREP ligand profiling. The conditions noted are these: filed as agonist, Compound concentration 10.0 uM.
Assay [12] has as its target T2, Spermine oxidase. Briefly: SMOX CETSA assay.
The target of assay [13] is 5-hydroxytryptamine receptor 2A (Homo sapiens) (UniProt P28223). Kind of assay: 5-HT2A (h) CEREP ligand profiling. To be noted: filed as agonist, Compound concentration 10.0 uM.
Assay [14] has as its target T3, 5-hydroxytryptamine receptor 2B (Homo sapiens, UniProt P41595). Kind of assay: GPCRScan assay: inhibition of 5-HT2B. Details: radioligand conc. used [nm] 1.0 – 2.0, parental cells stable HEK.
For assay [15], the target named is T1, 5-hydroxytryptamine receptor 1D. Briefly: GPCRScan assay: inhibition of 5-HT1D. Also on record: radioligand conc. used [nm] 1.0 – 2.0, parental cells HEKT.
The target of assay [16] is Alpha-2A adrenergic receptor (Homo sapiens, UniProt P08913). Kind of assay: GPCRScan assay: inhibition of Alpha2A. Details: radioligand conc. used [nm] 1.0 – 3.0, parental cells stable MDCK.
Sequence of Alpha-2A adrenergic receptor (P08913 whole entry): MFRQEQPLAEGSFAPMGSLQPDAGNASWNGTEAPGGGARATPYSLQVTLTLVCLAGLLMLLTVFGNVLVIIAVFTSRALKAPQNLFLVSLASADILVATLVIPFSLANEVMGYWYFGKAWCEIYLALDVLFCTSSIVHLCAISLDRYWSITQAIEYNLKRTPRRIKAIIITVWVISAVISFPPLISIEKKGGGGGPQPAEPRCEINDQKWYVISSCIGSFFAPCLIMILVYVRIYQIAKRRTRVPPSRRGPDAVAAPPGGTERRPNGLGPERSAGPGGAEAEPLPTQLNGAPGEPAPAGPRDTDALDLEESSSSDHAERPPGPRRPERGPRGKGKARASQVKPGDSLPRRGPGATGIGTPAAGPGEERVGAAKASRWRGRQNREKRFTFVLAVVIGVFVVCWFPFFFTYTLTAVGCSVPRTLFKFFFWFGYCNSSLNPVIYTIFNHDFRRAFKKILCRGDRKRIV
In assay [17] the target is T4, 5-hydroxytryptamine receptor 1B (Homo sapiens, UniProt P28222). Kind of assay: GPCRScan assay: inhibition of 5-HT1B. Details: radioligand conc. used [nm] 0.6 – 1.5, parental cells stable HEK.
T4 sequence (P28222 whole entry): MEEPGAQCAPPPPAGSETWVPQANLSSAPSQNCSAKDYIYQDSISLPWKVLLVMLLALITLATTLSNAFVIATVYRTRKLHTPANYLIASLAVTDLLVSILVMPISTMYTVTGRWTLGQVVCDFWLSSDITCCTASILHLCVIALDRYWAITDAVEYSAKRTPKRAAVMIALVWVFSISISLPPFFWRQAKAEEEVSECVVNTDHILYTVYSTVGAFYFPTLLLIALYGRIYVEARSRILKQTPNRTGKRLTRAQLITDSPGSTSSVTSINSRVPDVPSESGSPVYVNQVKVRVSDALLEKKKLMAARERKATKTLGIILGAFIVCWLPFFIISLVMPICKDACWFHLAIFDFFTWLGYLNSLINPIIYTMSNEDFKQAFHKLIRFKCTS
Assay [18] has as its target T3, 5-hydroxytryptamine receptor 2B. Kind of assay: 5-HT2B (h) CEREP ligand profiling. To be noted: filed as agonist, Compound concentration 10.0 uM.
Assay [19] addresses Adenosine receptor A3 (Homo sapiens) (UniProt P0DMS8). Briefly: A3 (h) CEREP ligand profiling. The conditions noted are these: filed as agonist, Compound concentration 10.0 uM.
In assay [20] the target is Kappa-type opioid receptor (Homo sapiens, UniProt P41145). Briefly: kappa (h) (KOP) CEREP ligand profiling. To be noted: filed as agonist, Compound concentration 10.0 uM.
Assay [21] concerns the target Adenosine receptor A2a (Homo sapiens) (UniProt P29274). Briefly: A2A (h CEREP ligand profiling. To be noted: filed as agonist, Compound concentration 10.0 uM.
Assay [22] deals with 3',5'-cyclic-AMP phosphodiesterase 4D (Homo sapiens) (UniProt Q08499). Kind of assay: PDE4D2 (h) CEREP ligand profiling. The conditions noted are these: Compound concentration 10.0 uM.
Assay [23] concerns the target T5, Muscarinic acetylcholine receptor M4 (Homo sapiens) (UniProt P08173).
T5 sequence (whole entry): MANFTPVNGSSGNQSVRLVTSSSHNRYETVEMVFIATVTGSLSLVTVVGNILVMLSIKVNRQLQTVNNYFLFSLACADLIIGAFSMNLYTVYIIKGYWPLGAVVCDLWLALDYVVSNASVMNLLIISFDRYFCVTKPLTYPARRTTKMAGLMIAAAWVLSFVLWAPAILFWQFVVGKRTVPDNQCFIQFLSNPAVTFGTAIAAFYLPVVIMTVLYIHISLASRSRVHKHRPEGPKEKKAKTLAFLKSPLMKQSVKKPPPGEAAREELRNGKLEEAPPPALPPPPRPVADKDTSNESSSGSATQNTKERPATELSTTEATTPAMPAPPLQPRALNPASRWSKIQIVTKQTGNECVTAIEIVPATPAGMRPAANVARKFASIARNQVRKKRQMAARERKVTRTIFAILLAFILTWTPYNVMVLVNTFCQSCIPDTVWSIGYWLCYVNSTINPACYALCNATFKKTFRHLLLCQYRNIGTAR
Kind of assay: M4 (h) CEREP ligand profiling. To be noted: filed as antagonist, Compound concentration 10.0 uM.

The species entered for another assay is Homo sapiens. Kind of assay: sigma (non-selective) (h) CEREP ligand profiling. To be noted: filed as agonist, Compound concentration 10.0 uM.
Assay [24] concerns the target Alpha-2B adrenergic receptor (Homo sapiens, UniProt P18089). Briefly: GPCRScan assay: inhibition of Alpha2B. Details: radioligand conc. used [nm] 1.5 – 2.0, parental cells HEKT.
For assay [25], the target named is Sigma intracellular receptor 2 (Homo sapiens, UniProt Q5BJF2). Kind of assay: GPCRScan assay: inhibition of Sigma 2. Also on record: radioligand conc. used [nm] 5.0, parental cells HEKT.
Sequence of Sigma intracellular receptor 2 (Q5BJF2 whole entry): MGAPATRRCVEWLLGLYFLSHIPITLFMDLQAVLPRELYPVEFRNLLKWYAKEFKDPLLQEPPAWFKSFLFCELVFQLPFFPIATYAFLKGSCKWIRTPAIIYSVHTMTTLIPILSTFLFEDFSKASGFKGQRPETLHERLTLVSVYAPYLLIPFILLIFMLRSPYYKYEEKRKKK
Assay [26] addresses T2, Spermine oxidase. Briefly: Horseradish Peroxidase (HRP) Fluorescence Assay.
The target in assay [27] is Adenosine receptor A1 (Homo sapiens) (UniProt P30542). Kind of assay: A1 (h) CEREP ligand profiling. The conditions noted are these: filed as antagonist, Compound concentration 10.0 uM.
In assay [28] the target is T4, 5-hydroxytryptamine receptor 1B. Kind of assay: 5-HT1B (h) CEREP ligand profiling. To be noted: filed as antagonist, Compound concentration 10.0 uM.
Assay [29] deals with Lysine-specific histone demethylase 1A (Homo sapiens, UniProt O60341). Briefly: HyPerBlu KDM1A enzymatic assay.
The target of assay [30] is Substance-K receptor (Homo sapiens) (UniProt P21452). Briefly: NK2 (h) CEREP ligand profiling. The conditions noted are these: filed as agonist, Compound concentration 10.0 uM.

SMILES strings stand for the structures. “And” between values parts separate entries of the source, which are not always exact repeats. Equal values may be shown once. The source made the active and inactive calls. The rule behind the calls is not given here.

T1 sequence (P28221 whole entry): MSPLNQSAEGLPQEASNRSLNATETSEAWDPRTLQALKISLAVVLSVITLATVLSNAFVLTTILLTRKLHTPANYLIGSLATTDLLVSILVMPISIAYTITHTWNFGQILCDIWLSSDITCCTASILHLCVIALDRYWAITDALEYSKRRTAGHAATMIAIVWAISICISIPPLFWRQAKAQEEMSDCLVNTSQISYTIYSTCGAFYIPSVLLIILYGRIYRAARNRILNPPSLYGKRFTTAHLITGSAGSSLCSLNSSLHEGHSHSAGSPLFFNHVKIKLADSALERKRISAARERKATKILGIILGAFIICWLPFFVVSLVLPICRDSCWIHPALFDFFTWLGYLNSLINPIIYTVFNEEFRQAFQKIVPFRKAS
T2 sequence (Q9NWM0 whole entry): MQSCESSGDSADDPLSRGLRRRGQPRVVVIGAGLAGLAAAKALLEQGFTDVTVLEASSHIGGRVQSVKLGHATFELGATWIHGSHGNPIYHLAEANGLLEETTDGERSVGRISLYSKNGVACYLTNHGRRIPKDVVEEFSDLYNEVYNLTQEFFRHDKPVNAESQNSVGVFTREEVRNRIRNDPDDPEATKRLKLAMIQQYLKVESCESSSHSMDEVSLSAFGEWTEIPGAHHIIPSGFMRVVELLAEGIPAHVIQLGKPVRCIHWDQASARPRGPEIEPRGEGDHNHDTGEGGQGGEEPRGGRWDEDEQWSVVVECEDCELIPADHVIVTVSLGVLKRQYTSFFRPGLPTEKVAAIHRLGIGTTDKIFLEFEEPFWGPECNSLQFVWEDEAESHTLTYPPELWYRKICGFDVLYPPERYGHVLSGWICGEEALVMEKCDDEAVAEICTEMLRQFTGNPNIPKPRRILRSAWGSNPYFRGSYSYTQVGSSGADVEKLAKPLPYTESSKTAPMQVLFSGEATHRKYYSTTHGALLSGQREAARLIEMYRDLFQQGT
Sequence of Sodium-dependent dopamine transporter (Q01959 whole entry): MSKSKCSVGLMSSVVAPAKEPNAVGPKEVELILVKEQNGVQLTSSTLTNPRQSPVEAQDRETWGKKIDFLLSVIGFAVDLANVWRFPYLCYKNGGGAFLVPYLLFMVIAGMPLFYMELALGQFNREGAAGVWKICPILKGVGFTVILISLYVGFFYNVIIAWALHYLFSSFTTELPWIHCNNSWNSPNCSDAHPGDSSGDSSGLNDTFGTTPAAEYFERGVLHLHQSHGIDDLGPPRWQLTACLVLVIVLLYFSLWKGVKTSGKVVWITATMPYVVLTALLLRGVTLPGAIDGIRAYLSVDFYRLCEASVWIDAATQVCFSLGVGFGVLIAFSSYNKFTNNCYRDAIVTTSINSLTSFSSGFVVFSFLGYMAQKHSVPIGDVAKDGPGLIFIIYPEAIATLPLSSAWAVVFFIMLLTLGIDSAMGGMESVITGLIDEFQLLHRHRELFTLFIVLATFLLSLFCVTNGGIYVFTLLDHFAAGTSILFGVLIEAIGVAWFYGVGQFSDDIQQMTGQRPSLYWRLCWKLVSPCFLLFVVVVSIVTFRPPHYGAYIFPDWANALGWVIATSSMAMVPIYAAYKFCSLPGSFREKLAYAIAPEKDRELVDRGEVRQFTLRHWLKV
T3 sequence (P41595 whole entry): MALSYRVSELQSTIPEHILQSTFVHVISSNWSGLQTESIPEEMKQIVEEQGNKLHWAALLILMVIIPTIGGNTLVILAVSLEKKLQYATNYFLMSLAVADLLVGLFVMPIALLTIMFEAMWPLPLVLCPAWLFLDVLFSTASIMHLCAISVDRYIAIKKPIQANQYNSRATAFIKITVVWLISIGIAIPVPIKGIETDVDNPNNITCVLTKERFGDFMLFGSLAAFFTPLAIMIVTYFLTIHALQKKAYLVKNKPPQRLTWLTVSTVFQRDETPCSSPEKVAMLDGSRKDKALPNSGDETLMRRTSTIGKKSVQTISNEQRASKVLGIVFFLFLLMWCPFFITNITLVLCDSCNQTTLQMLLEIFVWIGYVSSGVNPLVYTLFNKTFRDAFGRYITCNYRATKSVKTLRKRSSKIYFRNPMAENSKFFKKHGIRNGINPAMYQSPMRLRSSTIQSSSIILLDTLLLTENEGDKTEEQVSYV
Sequence of Alpha-1B adrenergic receptor (P35368 whole entry): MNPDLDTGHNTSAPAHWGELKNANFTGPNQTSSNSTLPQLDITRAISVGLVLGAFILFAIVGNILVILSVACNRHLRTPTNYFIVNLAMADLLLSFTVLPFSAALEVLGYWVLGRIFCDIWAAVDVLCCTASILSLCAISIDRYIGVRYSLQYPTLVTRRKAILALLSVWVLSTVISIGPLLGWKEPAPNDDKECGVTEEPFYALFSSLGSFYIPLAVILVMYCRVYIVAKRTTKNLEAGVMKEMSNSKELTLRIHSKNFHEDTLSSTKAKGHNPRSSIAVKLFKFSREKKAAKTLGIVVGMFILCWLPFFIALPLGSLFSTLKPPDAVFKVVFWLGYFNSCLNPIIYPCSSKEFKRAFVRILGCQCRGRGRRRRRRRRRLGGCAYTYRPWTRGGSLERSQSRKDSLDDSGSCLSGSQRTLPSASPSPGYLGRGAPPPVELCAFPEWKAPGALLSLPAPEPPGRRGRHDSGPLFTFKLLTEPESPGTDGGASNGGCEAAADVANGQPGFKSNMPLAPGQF

Take `CC(=O)Nc1ccc(-c2cc(-c3ccccc3)nc3cc(C(=O)NCCCn4ccnc4)nn23)cc1`: the inhibition in assay [1] is 48.5%; in [2], 18.5%; in assay [4] it was 15.1%; in [7] it was -8.97%; in [8] it was 25.9%. Further, the Ki at D(4) dopamine receptor was 3.39 µM; in assay [3], 1310 nM; on D(3) dopamine receptor, 3.6 µM; in assay [5] (read-out: Ki), 6.55 µM; in [5] (read-out: pKi (converted)), 6.61 µM; in assay [6], 9.78 µM. The half-inhibitory concentration (IC50) against Spermine oxidase [9] is reported as > 31 µM (not active).

`O=C(NCCCn1ccnc1)c1cc2nc(-c3ccccc3)cc(-c3ccccc3)n2n1`: the inhibition in assay [1] is 101%; in [10] it was 70.3%; in [2] it was 24.8%; in assay [11] it was 58.8%; in [13], 69.9%; in assay [4], 0.95%. Further, the inhibition is 68.5% in assay [18]; 75.1% in assay [19]; 74.1% in [20]; 75% in assay [21]; 63% in [22]; 59.8% in assay [23]. Moreover, the inhibition was 62.8% in the assay filed under Homo sapiens, 98.9% in assay [27], 62.1% in [28] and 56.8% in assay [30]. In addition, the IC50 was 1.2 µM (active) on Spermine oxidase [12] and > 60 µM (not active) in assay [29]. The Ki is 897 nM in assay [14]; 318 nM and 219 nM in [15] (read-out: Ki); 195 nM in assay [15] (read-out: pKi (converted)); 3.83 µM in [16]; 478 nM in assay [17] (read-out: Ki); 407 nM in assay [17] (read-out: pKi (converted)). The Ki in assay [24] was 3.58 µM; in assay [25], 1920 nM; at Spermine oxidase [26], 9.9 nM (active).
